# Laboratory results reported in US9556153B1, “JAK1 inhibitors” (Eli Lilly and Company, priority 2015, dated 2017).
# Tests used:
# JAK2 = JAK2 (Homo sapiens, UniProt O60674); experiment: Human whole blood assay: pSTAT5 (JAK2) in monocytes; assay type: cell-based; design: endogenous in cells; host or cells: human whole blood, CD4Low CD33Hi monocytes; details: HWB, GM-CSF stimulated, CD4Low CD33Hi monocytes; n=3
# Description: Human Whole Blood Assays: Determination of pSTAT3 (JAK1) and pSTAT5 (JAK2) in Lymphocytes and Monocytes
# Human whole blood (HWB) assays were developed and validated to determine the JAK1 and JAK2 selectivity of test compounds.
# Dilute the test compounds, 10 points, (1:3) in DMSO 100% and a step down in PBS+0.1% BSA. Use tofacitinib as a reference compound in each plate, as well as a maximum signal (stimulated wells) and a minimum signal (no stimulated wells) in order to normalize data. Obtain a pool of HWB from 4 different healthy donors. Plate the blood in a 96 well plate using a Tecan Evo 96w and incubate with test compounds for 1 h at RT. After this time of incubation, stimulate HWB with both IL6 (206-IL, R&D System) and GM-CSF (PHC2015, Life Technologies) for 15 more minutes. […]
# The final concentrations in the assay are the following: 100 μM for compounds, 50 μM for tofacitinib, 0.1 μg/mL IL6, 0.038 μg/mL GM-CSF and 1% DMSO. […] Incubate the antibodies for 1 h in dark at RT, then wash cells 2× and read on Cytometer Macsquant (Miltenyi Biotec). Gate the data on CD4+(lymphocytes) and CD4Low CD33Hi (monocytes), to measure the fluorescence from cells expressing pSTAT3 and pSTAT5 respectively. Analyze the data using FlowJo v_10 and the normalize the median of fluorescence versus maximum and minimum signal to determine the IC50s. […]
# [1] = tested on: pSTAT3 expression in the H1975 xenograft; experiment: pSTAT3 Rat IVTI (JAK1) Assay, H1975 xenograft; assay type: in vivo; details: single oral dose, two hours, n=1
# Experimental: pSTAT3 Rat IVTI (JAK1) Assay
# The purpose of this assay is to measure the ability of test compounds to inhibit the pSTAT3 expression in the H1975 xenograft rat model. Grow H1975 cells according to ATCC specifications at the lowest possible passage number available. Culture and maintain cells in RPMI-1640 supplemented with 10% FBS and incubated at 37° C. in 5% CO2. Harvest cells by standard techniques and mix with BD Biosciences basement membrane matrix (MATRIGEL®) to achieve a 1:1 cell/matrix ratio yielding an inoculation volume of 0.2 mL cell/matrix suspension containing 2e6 cells. Keep cell suspensions on ice throughout the inoculation procedure and start implantations within one hour after cell culture harvest. […] Time course studies are a single dose administered at the TED70 determined from the dose response study. […]
# Harvest and cut tumors to yield approximately 200-250 mm^3 size fragments and immediately drop into a 12×75 mm tube containing 1 mL of ice cold MSD Tris Lysis buffer (Meso Scale Discovery cat# R60TX-2) and 1×HALT (Thermo Scientific product #1861281). […] Cool plate to RT and measure absorbance at or near 562 nm on Molecular Devices Spectra Max. Protein concentrations for each sample are determined using SoftMax Pro 6.3 software program. After tumor samples are quantitated, freeze at −80° C. in the 96 well polypropylene plate and assay at a later date. […]
# Sequence of JAK2 (O60674 whole entry): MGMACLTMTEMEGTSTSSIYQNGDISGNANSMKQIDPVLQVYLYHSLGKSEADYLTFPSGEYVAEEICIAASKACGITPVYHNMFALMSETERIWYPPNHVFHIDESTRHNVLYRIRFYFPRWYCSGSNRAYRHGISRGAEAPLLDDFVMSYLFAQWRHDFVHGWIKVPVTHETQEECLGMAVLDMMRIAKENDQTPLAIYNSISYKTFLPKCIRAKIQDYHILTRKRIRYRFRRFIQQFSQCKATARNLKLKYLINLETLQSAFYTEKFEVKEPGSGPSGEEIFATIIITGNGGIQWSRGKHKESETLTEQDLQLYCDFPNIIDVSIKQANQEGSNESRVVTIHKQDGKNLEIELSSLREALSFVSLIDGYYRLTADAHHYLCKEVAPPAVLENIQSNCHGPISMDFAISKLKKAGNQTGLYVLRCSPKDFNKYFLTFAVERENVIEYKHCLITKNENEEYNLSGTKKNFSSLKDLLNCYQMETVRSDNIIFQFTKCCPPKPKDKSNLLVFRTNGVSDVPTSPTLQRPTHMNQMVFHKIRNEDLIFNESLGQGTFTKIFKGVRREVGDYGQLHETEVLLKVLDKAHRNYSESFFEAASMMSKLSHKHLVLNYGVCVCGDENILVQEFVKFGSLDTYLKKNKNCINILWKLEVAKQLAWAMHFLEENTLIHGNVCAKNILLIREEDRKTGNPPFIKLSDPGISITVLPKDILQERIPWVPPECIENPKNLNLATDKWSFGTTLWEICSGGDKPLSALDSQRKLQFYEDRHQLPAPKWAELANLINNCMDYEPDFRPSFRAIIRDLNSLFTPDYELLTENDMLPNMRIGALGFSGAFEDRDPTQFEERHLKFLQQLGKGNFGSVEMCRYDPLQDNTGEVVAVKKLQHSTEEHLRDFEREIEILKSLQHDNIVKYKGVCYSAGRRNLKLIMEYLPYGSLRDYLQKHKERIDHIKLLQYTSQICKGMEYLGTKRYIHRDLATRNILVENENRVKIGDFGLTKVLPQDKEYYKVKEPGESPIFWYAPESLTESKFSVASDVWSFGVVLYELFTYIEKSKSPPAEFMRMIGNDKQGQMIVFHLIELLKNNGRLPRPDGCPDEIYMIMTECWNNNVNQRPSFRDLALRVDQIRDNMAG
smiles,measurement,setting,value
"Cc1cc(Nc2cc(O[C@H]3CC[C@@H](NC[C@@H](O)C(F)(F)F)CC3)cc3c2ncn3C)nn1C [Example 1, (2R)-3-{[cis-4-({4-[(1,5-Dimethyl-1H-pyrazol-3-yl)amino]-1-methyl-1H-benzimidazol-6-yl}oxy)cyclohexyl]amino}-1,1,1-trifluoropropan-2-ol]",IC50,JAK2,13 ± 3.2 µM
same,TEC50 (plasma concentration required to achieve 50% pSTAT3 inhibition),[1],3.9 μM
same,TED50 (dose necessary to achieve 50% pSTAT3 inhibition),[1],9 mg/kg
